Measurements published in US7300784B2 (priority 2001, dated 2007).
Values joined by “and” are separate entries in the source; they are usually repeats but may differ in a detail not shown here. Identical values can stand only once. Like-named read-outs stand apart in the source and are kept apart here.

Assays:
[1] = test system: nitrile hydratase of Rhodococcus sp. Cr4; assay: Effect of coexisting Ni++ ion with various substrates; type: biochemical; conditions: for effect of Ni++ on activity with this substrate: Ni++ added
Method: Then, with the standard composition of reaction solution shown in table 2, various types of substrates, instead of 3-cyanopyridine, were added to the solutions containing 2.92 U enzyme to study their effects on the activity. […] The addition of Ni^++ ion was assumed to specifically enhance the reaction efficiency when the substrate was a α-hydroxynitrile (Table 11).
The incubation was prolonged for 10 minutes at 20° C. using 2.92 U enzyme. 17. Determination of N-Terminal Amino Acid Sequence

[2] = test system: nitrile hydratase of Rhodococcus sp. Cr4; type: biochemical
Rhodococcus sp. Cr4 = type: cell-based
[3] = test system: Rhodococcus rhodochrous ATCC 332878; type: cell-based
[4] = test system: nitrile hydratase of Rhodococcus sp. Cr4; assay: Substrate specificity of the purified nitrile hydratase (amide formation by HPLC); type: biochemical; conditions: compound used as substrate, 20° C., 2.92 U enzyme
Method: (§1) The standard assay method for the nitrile hydratase activity used in the following Examples as follows. The enzyme reaction is initiated by adding 3-cyanopyridine or 2-hydroxy-4-methylthiobutyronitrile (HMBN) as the substrate compound. In the case of 3-cyanopyridine, incubation was continued at 20° C. for 10 minute, in the case of HMBN, at 20° C. for 15 minutes. When 3-cyanopyridine was used in the reaction, 0.1 ml of 2 N hydrochloric acid was added to the reaction and the mixture was shaken vigorously to stop the reaction; when HMBN was used in the reaction, 0.1 ml of the reaction solution was added to 0.9 ml of 0.1% (v/v) phosphoric acid and the mixture was shaken vigorously to stop the reaction. The reaction solution was analyzed by HPLC.
• 0.3 M 3-cyanopyridine was added to initiate the reaction. • The mixture was incubated with shaking at 20° C. for […]. • 2 N HCl was added to stop the reaction. • Centrifugation. • HPLC analysis.
The substrate specificity of the enzymewas examined. With the standard composition reaction solution shown in table 2, 2.92 U enzyme was incubated with various types of substrates, instead of 3-cyanopyridine; the generation of amides in the reaction solution was analyzed by HPLC. Thus, the relative activity was determined. The types of substrate compounds added, final concentrations thereof, reaction times, and HPLC conditions used for the analyses of products corresponding to the respective substrates are shown in Table 6. The HPLC conditions (1)-(9) are indicated next to Table 6.
The conditions for HPLC were as follows: • (1) Column: Waters Spherisorb 5 μODS2 (4.6×150 mm); • Solvent: 10 mM KH2PO4(pH 2.8)/acetonitrile (v/v)=9:1; • Flow rate: 1.0 ml/min; • Detection: 230 nm; • Injection volume: 5 μl. • (2) Column: Waters Spherisorb 5 μODS2 (4.6×150 mm); • Solvent: 10 mM KH2PO4(pH 2.8)/acetonitrile (v/v)=9:1; • Flow rate: 1.0 ml/min; • Detection: 230 nm; • Injection volume:5 μl. • (3) Column: Waters Spherisorb 5 μODS2 (4.6×150 mm); • Solvent: 5 mM KH2PO4 (pH 2.8)/acetonitrile (v/v)=12:7; • Flow rate: 1.0 ml/min; • Detection: 230 nm; • Injection volume: 5 μl. • (4) Column: Waters Spherisorb 5 μODS2 (4.6×150 mm); • Solvent: 10 mM KH2PO4(pH 2.5)/acetonitrile (v/v)=99:1; • Flow rate: 1.0 ml/min; • Detection: 210 nm; • Injection volume: 5 μl. • (5) Column: Waters Spherisorb 5 μODS2 (4.6×150 mm); • Solvent: 10 mM KH2PO4(pH 2.5)/acetonitrile (v/v)=99:1; • Flow rate: 1.0 ml/min; • Detection: 230 nm; • Injection volume: 5 μl. • (6) Column: Spherisorb S5ODS2 (4.6×150 mm) • Solvent: 0.1% (v/v) phosphate/acetonitrile (v/v)=99:1; • Flow rate: 1.0 ml/min; • Detection: 210 nm; • Injection volume: 5 μl. • (7) Column: Spherisorb S5ODS2 (4.6×150 mm); • Solvent: 0.1% (v/v) phosphate/acetonitrile (v/v)=9:1; • Flow rate: 1.0 ml/min; • Detection: 210 nm; • Injection volume: 5 μl; • Temperature: 40° C. • (8) Column: Spherisorb S5ODS2 (4.6×150 mm); • Solvent: 0.1%(v/v) phosphate/acetonitrile (v/v)=9:1; • Flow rate: 1.0 ml/min; • Detection: 230 nm; • Injection volume: 5 μl • Temperature: 40° C. • (9) Column: Spherisorb S5ODS2 (4.6×150 mm); • Solvent: 5 mM KH2PO4 (pH 2.8)/acetonitrile (v/v)=12:7; • Flow rate: 1.0 ml/min; • Detection: 210 nm; • Injection volume: 5 μl; • Temperature: 40° C. 13. The Effect of Inhibitors on the Enzymatic Activity

[5] = test system: nitrile hydratase of Rhodococcus sp. Cr4; type: biochemical; remark: listed apart in the source
Method: as §1
• 10% (v/v) HMBN was added to initiate the reaction. • The mixture was incubated with shaking at 20° C. for 10 minutes. • 0.1% (v/v) H3PO4 was added to stop the reaction. • Centrifugation. • HPLC analysis.
Inhibitors to the enzyme were studied. With the standard composition of reaction solution shown in Table 1, various inhibitors were added at a final concentration 1.0 mM or 0.1 mM to the solutions containing 2.92 U enzyme; after the mixtures were incubated at 20° C. for 10 minutes, the reaction was carried out for 15 minutes.

[6] = test system: nitrile hydratase of Rhodococcus sp. Cr4; assay: Effect of substrate concentration (Km value, Lineweaver-Burk plot); type: biochemical; conditions: 20° C., 15 minutes
Method: The Km value for HMBN was determined from the S-V plot (FIG. 4) and Lineweaver-Burk plot (FIG. 5). 0.0585 U of the enzyme was added to solutions containing HMBN at various concentrations and the reactions were incubated at 20° C. for 15 minutes. The reactions were analyzed by HPLC.
In addition, the Km value for 3-cyanopyridine was determined from the S-V plot (FIG. 6) and Lineweaver-Burk plot (FIG. 7). Similarly, 0.0265 U of the enzyme was added to solutions containing 3-cyanopyridine at various concentrations and the reactions were incubated at 20° C. for 15 minutes. The reactions were analyzed by HPLC.

[7] = activity for 3-cyanopyridine = 100%
[8] = compound 1.0 mM, Free = 100, HMBN substrate, 20° C.
[9] = methanol added (final conc. 20% v/v)

N#CCO [Hydroxyacetonitlile]
activity, Free [1]: 0
activity, NiCl2 (1 mM) [1]: 0

O=S(=O)([O-])[O-].[Fe+2] [FeSO4]
Relative activity (%) [2]: 78.9%

[Cl][Ni][Cl] [NiCl2]
Relative activity (%) (Rhodococcus sp. Cr4): 186%
effect on nitrile hydratase activity in resting cell reaction (Rhodococcus sp. Cr4): enhanced
Relative activity (%) [2]: 196% and 185% and 171% and 197% and 195% and 184%
effect on enzyme activity (words) [2]: enhanced
enhancement of the enzymatic activity [2]: enhanced twice
Relative activity (%) [3]: 193%

CCC#N [Propionitrile]
Relative activity (%) [4, 7]: 173%

N#CCN [Aminoacetonitlile]
activity, Free [1]: 0
activity, NiCl2 (1 mM) [1]: 0

O=C(O)CN(CCN(CC(=O)O)CC(=O)O)CC(=O)O [EDTA]
Relative activity (%) [5]: 101%

CSCCC(O)C#N (centres unmarked) [HMBN, 2-hydroxy-4-methylthiobutyronitrile]
activity, Free [1]: 100
activity, NiCl2 (1 mM) [1]: 196
effect of Ni++ on activity with this substrate [1]: enhanced twice
Relative activity (%) [4, 7]: 154%
Km [6]: 1430 µM

CCN1C(=O)C=CC1=O [N-Ethylmaleimide]
Relative activity (%) [5, 8]: 101%

N#CCCO [Etylene cyanohydrin]
activity, Free [1]: 100
activity, NiCl2 (1 mM) [1]: 91

O=C(O)c1cc(SSc2ccc([N+](=O)[O-])c(C(=O)O)c2)ccc1[N+](=O)[O-] [5-5′-Dithiobis]
Relative activity (%) [5]: 99.1%

N[C@@H]1CONC1=O [D-Cycloserine]
Relative activity (%) [5, 8]: 94.8%

[Cl][Fe]([Cl])[Cl] [FeCl3]
Relative activity (%) [2]: 100%

O=C(O)c1cc[c]([Hg][Cl])cc1 [p-Chloromercuribenzoate]
Relative activity (%) [5, 8]: 97.7%

CCCCCC#N [n-Capronitrile]
Relative activity (%) [4, 9]: 18.1%

C=C(C)C#N [Methacrylonitrile]
Relative activity (%) [4, 7]: 93.7%

O=C(O)CI [Iodoacetate]
Relative activity (%) [5]: 97.0%

N#CCC(N)=O [2-Cyanoacetamide]
Relative activity (%) [4, 7]: 46.3%

N#CCCN [3-aminopropyonitlile]
activity, Free [1]: 100
activity, NiCl2 (1 mM) [1]: 97

N#CC(O)c1ccccc1 (centres unmarked) [Manderonitlile]
activity, Free [1]: 100
activity, NiCl2 (1 mM) [1]: 201
effect of Ni++ on activity with this substrate [1]: enhanced twice

N#CCc1c[nH]c2ccccc12 [3-Indolylacetonitrile]
Relative activity (%) [4, 9]: 2.33%

N#Cc1cnccn1 [Cyanopyrazine]
Relative activity (%) [4, 7]: 114%

NC(N)=O [Urea]
Relative activity (%) [5, 8]: 95.7%

[N-]=[N+]=[N-].[Na+] [NaN3]
Relative activity (%) [5]: 98.5%

[Ca+2].[Cl-].[Cl-] [CaCl2]
Relative activity (%) [2]: 96.4%

N#Cc1cccnc1 [3-Cyanopyridine]
activity, Free [1]: 100
activity, NiCl2 (1 mM) [1]: 99
Relative activity (%) [4, 7]: 100%
Relative activity (%) [4, 9]: 76.5%
Km [6]: 1380 µM
